Patent US6217848A, “Cyanine and indocyanine dye bioconjugates for biomedical applications” (Mallinckrodt Inc., priority 1999, dated 2001)

Experiments:
[1] = system: Prostatic Carcinoma (R3327-H); experiment: In vivo fluorescence imaging of prostatic carcinoma (R3327-H) in rats; design: species or system young male Copenhagen rats; details: Dunning R3327-H
Source text: (§1) A non-invasive in vivo fluorescence imaging apparatus was employed to assess the efficacy of contrast agents developed for tumor detection in animal models. A LaserMax Inc. laser diode of nominal wavelength 780 nm and nominal power of 40 mW was used. The detector was a Princeton Instruments model RTE/CCD-1317-K/2 CCD camera with a Rodenstock 10 mm F2 lens (stock #542.032.002.20) attached. An 830 nm interference […] (CVI Laser Corp., part # F10-830-4-2) was mounted in front of the CCD input lens such that only emitted fluorescent light from the contrast agent was imaged. Typically, an image of the animal was taken pre-injection of contrast agent. This image was subsequently subtracted (pixel by pixel) from the post injection images. However, the background subtraction was […] done once the animal had been removed from the sample area and returned at a later time for images taken several hours post injection.
The animals were anesthetized with rat cocktail (xylazine; ketamine; acepromazine 1.5: 1.5: 0.5) at 0.8 mL/kg via intramuscular injection. The area of the tumor (left flank) was shaved to expose tumor and surrounding surface area. A 21 gauge butterfly equipped with a stopcock and two syringes containing heparinized saline was placed into the later tail vein of the rat. Patency of the vein was checked prior to administration of the ICG via the butterfly apparatus. […]

[2] = system: Rat Pancreatic Acinar Carcinoma (CA20948); experiment: In vivo fluorescence imaging of rat pancreatic acinar carcinoma (CA20948) expressing the SST-2 receptor; design: species or system Lewis rat; details: for fluorescence in tumored rats at 45 minutes: 45 minutes post injection (FIGS. 2A-B)
Source text: as §1
The animals were anesthetized with rat cocktail (xylazine; ketamine; acepromazine 1.5: 1.5: 0.5) at 0.8 mL/kg via intramuscular injection. The area of the tumor (left flank) was shaved to expose tumor and surrounding surface area. A 21 gauge butterfly equipped with a stopcock and two syringes containing heparinized saline was placed into the later tail vein of the rat. Patency of the vein was checked prior to administration of the ICG via the butterfly apparatus. Each animal received 500 μL of a 0.42 mg/mL solution of ICG in water.
The imaging apparatus and the procedure used are described in Example 9. Rat pancreatic acinar carcinoma expressing the SST-2 receptor (CA20948) were induced by solid implant technique in the left flank area and palpable masses were detected 9 days post implant.
The imaging apparatus and the procedure used are described in Example 9 except that each animal received 500 μL of a 1.0 mg/mL solution of Cytate 1 solution of 25% dimethylsulfoxide in water. Rat pancreatic acinar carcinoma expressing the SST-2 receptor (CA20948) were induced by solid implant technique in the left flank area and palpable masses were detected 24 days post implant. Images were obtained at various times post injection. […] FIGS. 2A-B show a comparison of the uptake of ICG and Cytate 1 at 45 minutes in rats with the CA20948 tumor cell line.
Cytate 1 was evaluated in the CA20948 Lewis rat model. […] As a control, the organs were imaged again (FIG. 4A) and the image was compared with that of the same tissues in the uninjected rat (FIG. 4B).

[3] = system: pancreatic ductal adenocarcinoma (DSL 6A); experiment: In vivo fluorescence imaging of pancreatic ductal adenocarcinoma (DSL 6A) in rats; design: species or system male Lewis rats
Source text: as §1
DSL 6A tumors were induced in male Lewis rats in the left flank area by the introduction of material from a solid (donor) implant and the tumors were palpable in approximately 14 days.
The animals were anesthetized with rat cocktail (xylazine; ketamine; acepromazine 1.5: 1.5: 0.5) at 0.8 mL/kg via intramuscular injection. The area of the tumor (left flank) was shaved to expose tumor and surrounding surface area. […]

[4] = Blood clearance profile of peptide-dye conjugates monitored at the rat ear; format: in vivo, Sprague-Dawley or Fischer 344 rats; details: bolus injection in the lateral tail vein, 0.5 to 2.0 mL
Source text: A laser of appropriate wavelength for excitation of the dye chromophore was directed into one end of a fiber optic bundle and the other end was positioned a few millimeters from the ear of a rat. A second fiber optic bundle was also positioned near the same ear to detect the emitted fluorescent light and the other end was directed into the optics and electronics for data collection. An interference filter (IF) in the collection optics train was used to select emitted fluorescent light of the appropriate wavelength for the dye chromophore.
Sprague-Dawley or Fischer 344 rats were used in these studies. The animals were anesthetized with urethane administered via intraperitoneal injection at a dose of 1.35 g/kg body weight. After the animals had achieved the desired plane of anesthesia, a 21 gauge butterfly with 12" tubing was placed in the lateral tail vein of each animal and flushed with heparinized saline. The animals were placed onto a heating pad and kept warm throughout the entire study. The lobe of the left ear was affixed to a glass microscope slide to reduce movement and vibration.
Incident laser light delivered from the fiber optic was centered on the affixed ear. Data acquisition was then initiated, and a background reading of fluorescence was obtained prior to administration of the test agent. For Cytates 1 or 2, the peptide-dye conjugate was administered to the animal through a bolus injection in the lateral tail vein, typically of 0.5 to 2.0 mL.
This procedure was repeated with several dye-peptide conjugates in normal and tumored rats and representative profiles are shown in FIGS. 6 to 10.

[5] = system: Rat Pancreatic Acinar Carcinoma (CA20948); experiment: Imaging of individual organs removed from rat with CA20948 tumor; format: in vivo; details: about 24 hours after injection (FIG. 5)
Protocol: FIG. 5 is an image of individual organs taken from a rat with pancreatic acinar carcinoma (CA20948) about 24 hours after injection with Cytate 1.
as §1
Individual organs were removed and imaged. […] This correlates very nicely with radiolabeled Octreotate in the same model system (see de Jong et al., 1998).

[6] = system: somatostatin (SST-2) receptors; details: cited from earlier work

## CC1(C)C(/C=C/C=C/C=C/C=C2\N(CCCCS(=O)(=O)O)c3ccc4ccccc4c3C2(C)C)=[N+](CCCCS(=O)(=O)[O-])c2ccc3ccccc3c21 [ICG, indocyanine green]
[1]
  perfusion of the agent into the tumor: slow perfusion of the agent over time into the tumor
  reasonable images obtained: reasonable images were obtained
[2]; CA20948, 30 minutes post injection
  perfusion of the agent into the tumor: only a slight but transient perfusion that was absent after only 30 minutes post injection
[2]; CA20948
  fluorescence in tumored rats at 45 minutes: mostly cleared
[2]; CA20948 compared to the other two tumor lines
  non-specific localization: no non-specific localization
[3]
  reasonable images obtained: reasonable images were obtained
[3]; 500 μL of 0.42 mg/mL in water
  perfusion of the agent into the tumor: slow perfusion of the agent over time into the tumor

## C[C@@H](O)[C@H](NC(=O)[C@@H]1CSSC[C@H](NC(=O)[C@@H](Cc2ccccc2)NC(=O)CCN2C(=CC=CC=CC=CC3=[N+](CCC(=O)N[C@H](Cc4ccccc4)C(=O)N[C@H]4CSSC[C@@H](C(=O)N[C@H](C(=O)O)[C@@H](C)O)NC(=O)[C@H]([C@@H](C)O)NC(=O)[C@H](CCCCN)NC(=O)[C@@H](Cc5c[nH]c6ccccc56)NC(=O)[C@H](Cc5ccc(O)cc5)NC4=O)c4ccc5ccccc5c4C3(C)C)C(C)(C)c3c2ccc2ccccc32)C(=O)N[C@@H](Cc2ccc(O)cc2)C(=O)N[C@H](Cc2c[nH]c3ccccc23)C(=O)N[C@@H](CCCCN)C(=O)N[C@@H]([C@@H](C)O)C(=O)N1)C(=O)O [Cytate 2, bisOctreotate-Bisethylcarboxymethylindocyanine dye]
[4]
  decay of fluorescence signal (blood clearance): decayed as a function of time as the conjugate cleared from the bloodstream
  fluorescence signal after bolus injection (rise): rapidly increased to a peak value

## C[C@@H](O)[C@H](NC(=O)[C@@H]1CSSC[C@H](NC(=O)[C@@H](Cc2ccccc2)NC(=O)CC[N+]2=C(/C=C/C=C/C=C/C=C3/N(CCC(=O)O)c4ccc5ccccc5c4C3(C)C)C(C)(C)c3c2ccc2ccccc32)C(=O)N[C@@H](Cc2ccc(O)cc2)C(=O)N[C@H](Cc2c[nH]c3ccccc23)C(=O)N[C@@H](CCCCN)C(=O)N[C@@H]([C@@H](C)O)C(=O)N1)C(=O)O [Cytate 1, monoOctreotate-Bisethylcarboxymethylindocyanine dye]
[4]
  decay of fluorescence signal (blood clearance): decayed as a function of time as the conjugate cleared from the bloodstream
  fluorescence signal after bolus injection (rise): rapidly increased to a peak value
[2]; CA20948, 2 minutes post injection, 500 μL of 1.0 mg/mL in 25% dimethylsulfoxide in water
  uptake into the tumor: Uptake into the tumor was seen at 2 minutes
[2]; CA20948
  fluorescence in tumored rats at 45 minutes: still quite intense
[2]; CA20948, 90 minutes post injection (FIG. 3A)
  localization in the tumor: strong localization
[2]; CA20948, 19 hours post injection
  specificity for the SST-2 receptors: showing specificity of this agent for the SST-2 receptors
[2]; CA20948, 19 hours post injection (FIG. 3B)
  tumor visualization: tumor visualization was easily observed
[2]; CA20948, post-injection
  duration of dye fluorescence in the tumor: remained intense in the tumor for several hours post-injection
[5]
  uptake in heart, muscle, spleen and liver: significantly less uptake
  uptake in pancreas, adrenals and tumor tissue: High uptake

## C[C@@H](O)[C@H](NC(=O)[C@@H]1CSSC[C@H](NC(=O)[C@H](N)Cc2ccccc2)C(=O)N[C@@H](Cc2ccc(O)cc2)C(=O)N[C@H](Cc2c[nH]c3ccccc23)C(=O)N[C@@H](CCCCN)C(=O)N[C@@H]([C@@H](C)O)C(=O)N1)C(=O)O [Octreotate, D-Phe-Cys'-Tyr-D-Trp-Lys-Thr-Cys'-Thr]
[6]
  targeting of somatostatin (SST-2) receptors: known to target somatostatin (SST-2) receptors
